Laboratory results as given in patent publication US20240261474A1, “BIODEGRADABLE TISSUE SCAFFOLD WITH SECONDARY MATRIX TO HOST WEAKLY ADHERENT CELLS” (THE U.S.A., as represented by the Secretary, Department of …, priority 2021, published 2024).
“Also recorded” adds a separate entry of the source.

How the values were obtained:
Format in all cases: cell-based, human
iPSC-RPE [1] = assay: High-content compound screening on iPSC-RPE, cell area quantified with REShAPE; details: 384-well plates, 30 days in RPE maturation medium
Procedure: Screening of Compound Library and Imaging: 115 drugs targeting various developmental pathways or cytoskeletal stressors were selected to form a new developmental library of compounds. The drugs are either activators or inhibitors of various signaling pathways and target proteins at different levels of the signaling cascades. For each drug, an initial concentration was selected, and adjustments made to the concentration of each drug. The assays were performed on iPSC-derived committed RPE. For every drug, the concentration was lowered if toxicity was detected or increased if there was no evident effect on cell morphology in comparison to control. The list of compounds tested can be found in Table 1. The high-content screening was performed in 384-well plates (cat #6057300, Perkin Elmer) using a range of 3 different concentrations (3×, 1×, 0.3×). […]
Morphometric Analysis Using REShAPE: The binary segmentation produced by the CNN algorithm was transferred to REShAPE for cell shape analysis. […] For every cell in a field of view that has been successfully segmented, REShAPE provide quantification of more than 25 different shape metrics. […] In addition, the software created images of segmented cells for every metric analyzed, where every cell is color-coded according to the raw values (FIG. 4). The color-coded images display the location of the cells analyzed. […]

iPSC-RPE [2] = assay: Single-cell RNA sequencing; details: AGN 193109-, endo-IWR-1- and DMSO-treated cells
Procedure: Single-cell RNA sequencing was performed to confirm that the compounds changed cell transcriptome.

iPSC-RPE [3] = assay: Trans-epithelial electrical resistance (TER), tight junction integrity; details: fully mature iPSC-RPE; for TER resistance: minimum threshold 400 Ωcm^2, DMSO around 1100
Procedure: (§1) Different techniques were used to study RPE morphologic features.
At this point the trans-epithelial electrical resistance (TER) was assayed to confirm the quality of differentiation and examine the effect of drugs on tight junction integrity. The minimum threshold of 400 Ωcm^2 for epithelial resistance per unit area is used to determine good batches of differentiation.
Trans-epithelial electrical resistance (TER) is a measure of the tightness of the monolayer. The tighter the monolayer, the healthier are the cells in the monolayer. A cutoff of 400 ohm*cm^2 was used to exclude cells with low TER. […] The range specifies 90% of the data.

iPSC-RPE [4] = assay: Testing different concentrations of AGN 193109 and endo-IWR-1 to reproduce macular (P1), central (P2) and peripheral (P3) cells
Procedure: FIG. 13. Testing different concentrations of AGN 193109 and endo-IWR-1 to reproduce macular (P1), central (P2) and peripheral (P3) cells. A range of concentrations of AGN 193109 and endo-IWR-1 were tested that could be used to reproduce macular, central and peripheral RPE populations (labeled P1, P2 and P3, respectively). Population 1 (P1, macular cells) can be reproduced with […] of AGN 193109. Population 3 (P3, peripheral) can be reproduced with 1 mM-4 mM of endo-IWR-1. A gradient of AGN 193109 and endo-IWR-1 could be used to replicate human RPE population 2 (P2, central)—central RPE cells. In one example, this can be reproduced with 25 nM-50 nM of AGN 193109 and 0.1 mM-0.5 mM of endo-IWR-1. Boxplots relative to DMSO, P1, P2 and P3 are plotted on the left side of the graph as a reference for cell size comparison. Five concentrations were tested for AGN 193109 and endo-IWR-1.

iPSC-RPE [5] = assay: Scanning electron microscopy of apical processes; details: SEM; for apical processes average transversal length / apical processes average transversal width: transversal section; for type of apical processes: DMSO control shows both petal and finger-like
Procedure: FIG. 11. Defining petal (undulated) and finger-like apical processes. The transversal section of apical processes was measured to precisely define their shape. Petal-like apical processes, obtained by treating RPE cells with AGN 193109, have an average transversal length of 1.68 μm (length min 0.5, max 4 μm) and width of 0.20 μm (width min 0.1, max 1 μm). The petal-like apical processes are also wavy along their length. The width of the undulation ranges from 0.2 to 2 μm. Finger-like apical processes, obtained by treating RPE cells with endo-IWR-1, are cylindrical and have the same average transversal length and width of 0.23 μm (min 0.1, max 1 microns). An example of how measurements of the apical processes was done is shown for each type of apical processed.
as §1
Finally, transmission electron microscopy (TEM) was used to detect fine morphological alterations, whereas scanning electron microscopy (SEM) was essential to study modifications in apical processes structures. […] In DMSO-treated iPSC-RPE we found both types of apical processes, petal and finger-like.

effect on epithelial barrier / tight junction integrity (iPSC-RPE [3]) | Structure (SMILES) | effect on iPSC-RPE cell area / cell size distribution in the screening (iPSC-RPE [1]) | single cell transcriptome clustering (iPSC-RPE [2]) | TER resistance (iPSC-RPE [3]) | concentration that reproduces population 2 (P2, central) (iPSC-RPE [4]; AGN 193109 combined with endo-IWR-1) [nM] | concentration used to reproduce P1 (macular) (iPSC-RPE [4]; Table 6) [µM] | apical processes average transversal length (iPSC-RPE [5]) [μm] | apical processes average transversal width (iPSC-RPE [5]) [μm] | type of apical processes (iPSC-RPE [5]) | concentration used to reproduce P3 (peripheral) (iPSC-RPE [4]; Table 6) [µM] | concentration used to reproduce P2 (central) (iPSC-RPE [4]; Table 6, ENDO-1-IWR combined with AGN 193109) [µM] | type of apical processes (iPSC-RPE [5]; listed as Endo-IWR-1)
maintained tight junction integrity | Cc1ccc(C2=CCC(C)(C)c3ccc(C#Cc4ccc(C(=O)O)cc4)cc32)cc1 [AGN 193109, 4-[2-[5,6-Dihydro-5,5-dimethyl-8-(4-methylphenyl)-2-naphthalenyl]ethynyl]-benzoic acid] | reproduces macular and peripheral cell sizes in vitro, respectively | cluster separately from each other | ~1600 Ωcm^2 | 25 to 50 | 0.1 to 0.2 | 1.68 | 0.20 | enriched RPE cells with petal-like apical processes (with undulation); also recorded: enrich RPE cells with petal-like and finger-like apical processes, respectively |  |  | 
maintained tight junction integrity | O=C(Nc1cccc2cccnc12)c1ccc(N2C(=O)C3C4C=CC(C4)C3C2=O)cc1 (stereo not drawn) [ENDO-1-IWR, 4-(1,3,3a,4,7,7a-Hexahydro-1,3-dioxo-4,7-methano-2H-isoindol-2-yl)-N-8-quinolinyl-Benzamide] | reproduces macular and peripheral cell sizes in vitro, respectively | cluster separately from each other | ~1200 Ωcm^2 |  |  | 0.23 | 0.23 | enriched uniquely by finger-like apical processes; also recorded: enrich RPE cells with petal-like and finger-like apical processes, respectively; also recorded: enriches these cells with finger-like apical processes | 1 to 4 | 0.1 to 0.2 | enriched cells with finger-like apical processes
